Source: US11623919B2, “Heterocyclic P2X7 antagonists” (AXXAM S.P.A., priority 2017, dated 2023)

Tests used:
Type in all cases: cell-based
P2X7 receptor [1] = target: T1, P2X7 receptor (Homo sapiens, UniProt Q99572); test: YO-PRO-1 uptake assay; set-up: expressed in transfected cells; details: HEK-293 cells stably transfected with P2X7 receptor; Bz-ATP EC80 (30 μM); Low Divalent Cation Assay Buffer
T1 sequence (Q99572 1-595): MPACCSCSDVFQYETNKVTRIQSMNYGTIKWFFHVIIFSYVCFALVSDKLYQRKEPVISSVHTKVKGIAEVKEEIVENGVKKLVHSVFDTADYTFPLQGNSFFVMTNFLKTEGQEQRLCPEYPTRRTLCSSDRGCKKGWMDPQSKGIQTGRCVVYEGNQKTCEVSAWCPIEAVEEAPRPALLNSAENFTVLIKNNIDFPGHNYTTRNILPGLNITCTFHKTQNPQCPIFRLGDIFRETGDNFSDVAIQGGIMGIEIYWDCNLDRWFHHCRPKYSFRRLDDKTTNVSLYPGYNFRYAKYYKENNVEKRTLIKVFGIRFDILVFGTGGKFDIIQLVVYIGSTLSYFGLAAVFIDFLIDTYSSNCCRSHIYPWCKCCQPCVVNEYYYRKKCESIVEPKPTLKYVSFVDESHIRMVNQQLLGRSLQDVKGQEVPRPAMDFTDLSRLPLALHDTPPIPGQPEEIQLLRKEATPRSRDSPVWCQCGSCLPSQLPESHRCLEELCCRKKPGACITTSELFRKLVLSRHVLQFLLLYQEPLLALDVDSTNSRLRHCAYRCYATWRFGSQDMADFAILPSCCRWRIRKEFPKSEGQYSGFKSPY
Text: YO-PRO®-1 is a fluorescent DNA-binding dye with a MW of 374 Da (Molecular Probes®, cat. Y3603). This method is based upon the presumed ability of YO-PRO®-1 to enter through the dilated or “large pore form” of P2X7 receptor and to bind to intracellular DNA whereupon it increases many fold its fluorescence intensity. The dye ha an absorption spectrum compatible with excitation at 488 nm by argon laser sources and its emission wavelength is in the range of 515-575 nm. The aim of this assay was to validate the interaction of antagonists with P2X7 receptor using an alternative readout to Ca2+-sensitive fluorescent dyes.
HEK-293 cells stably transfected with P2X7 receptor were seeded overnight un growth medium at 20,000 cell/well in 384-well plate. 24 hours later, the medium was removed, the cells were washed with Low Divalent Cation Assay Buffer (0.3 mM Ca^2+ and 0 mM Mg^2+) and then pre-loaded with 20 μL/w of 5 μM YO-PRO®-1 dye.
FLIPRTETRA fluorescence measurement immediately started. Then 10 μL/w of test compounds and reference antagonist A438079 at 3×-concentration were injected with the FLIPRTETRA and the kinetic response over a period of five minutes was monitored. A second injection of 10 μL/w of 3× Bz-ATP EC80 (30 μM) was performed with the FLIPRTETRA and the signal of the emitted fluorescence was recorded for additional 60 minutes. All the experiment was carried out with a Low Divalent Cation Assay Buffer (0.3 mM Ca^2+ and 0 mM Mg^2+).
The effect of the test compounds was measured as percent inhibition vs the reference antagonist and IC50 values were calculated accordingly.

P2X7 receptor [2] = target: T1, P2X7 receptor; test: Screen Quest Fluo-8 No Wash Calcium Assay (Bz-ATP evoked Ca2+ influx, FLIPR); set-up: hP2X7 (IC50; nM); other: hP2X7; HEK-293 cells stably transfected with P2X7 receptor, Bz-ATP at EC80, Fluo-8 NW; potency; details: hP2X7; HEK-293 cells stably transfected with P2X7 receptor, Bz-ATP at EC80, Fluo-8 NW; potency ranges A-D
Procedure, shortened: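 HEK-293 cells stably expressing P2X7 were loaded with Fluo-8 NW for 1 h at RT, then given compound, and 5 min later Bz-ATP at EC80. Fluorescence was read by FLIPR in low divalent cation buffer (0.3 mM Ca2+, 0 mM Mg2+). IC50 came from percent inhibition relative to reference antagonist A438079.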

P2X7 receptor [3] = target: T1, P2X7 receptor; test: Automated patch-clamp (QPatch16X) P2X7 channel assay; set-up: expressed in transfected cells; host or cells: HEK-293; details: HEK-293 cells expressing P2X7 channels; whole-cell, held at -80 mV; 100 microM BzATP; compound 1, 10, 100 and 1000 nM; read-out: Q-Patch (IC50)
Procedure: In order to directly monitor the block of P2X7 channel, an electrophysiological assay was developed and implemented on the QPatch16X automated electrophysiology instrument.
HEK-293 cells expressing the P2X7 channels were cultured in modified EMEM.
72 hours before experiment, 5 million cells were seeded onto T225 flasks. Just before the experiment cells were washed twice, detached from the flask with trypsin-EDTA, re-suspended in the suspension solution and placed on the QPatch 16x.
The compounds (20 mM in a 100% DMSO) stored at −20° C. were prepared the day of the experiment (a first dilution 1:20 in 100% DMSO to prepare a 1 mM stock solution, then a 1 microM solution in external solution+a serial dilution 1:10).
The standard whole-cell voltage clamp experiments were performed at room temperature. From these experiments the multihole technology was used and the data were sampled at 2 KHz.
The intracellular solution contained (mM) 135 CsF, 10 NaCl, 1 EGTA, 10 HEPES, (pH 7.2 with CsOH) whereas the extracellular contained (mM) 145 NaCl, 4 KCl, 0.5 MgCl2, 1 CaCl2, 10 HEPES, 10 Glc (pH 7.4 with NaOH).
After establishment of the seal and the passage in the whole cell configuration, the cells were held at −80 mV. The P2XR7 current was evoked by applying 100 microM of BzATP alone (4 times) and then in the presence increasing concentrations of the compound under investigation (1, 10, 100 and 1000 nM).
The pre-incubation periods 5 to 8 contain increasing concentrations of the compound of interest (1, 10, 100 and 1000 nM), as illustrated in FIGURE (application protocol).
The maximal inward current evoked by BzATP in absence or presence of increasing concentrations of the compounds under investigation was measured and normalized. The potential […] effect was measured as % of control and as IC50 determined fitting the dose-response curves data with the following equation: Y=100/(1+10^((Log IC50−X)*HillSlope))

O=c1onc(Cc2c(F)cccc2Cl)n1CC1CCC(F)(F)C1 (racemic) [Example 128, 3-[(2-chloro-6-fluorophenyl)methyl]-4-[(3,3-difluorocyclopentyl)methyl]-4,5-dihydro-1,2,4-oxadiazol-5-one]
IC50 (P2X7 receptor [1]): 115 nM | IC50 (P2X7 receptor [2]): < 200 nM | IC50 (P2X7 receptor [3]): 45.2 nM

O=c1onc(Cc2c(F)cccc2Cl)n1CC1CCC(F)(F)C1 (single isomer, unassigned) [Example 149, 3-(2-chloro-6-fluorobenzyl)-4-[(3,3-difluorocyclopentyl)methyl]-1,2,4-oxadiazol-5(4H)-one]
IC50 (P2X7 receptor [1]): 66 nM | IC50 (P2X7 receptor [2]): < 200 nM | IC50 (P2X7 receptor [3]): 68.6 nM

O=c1onc(Cc2ccc(F)cc2)n1Cc1c(F)cccc1Cl [Example 1, 4-[(2-chloro-6-fluorophenyl)methyl]-3-[(4-fluorophenyl)methyl]-4,5-dihydro-1,2,4-oxadiazol-5-one]
IC50 (P2X7 receptor [1]): 581 nM | IC50 (P2X7 receptor [2]): 200 to 1000 nM | IC50 (P2X7 receptor [3]): 247 nM

Cc1cc(F)ccc1Cn1c(Cc2c(F)cccc2Cl)noc1=O [Example 25, 3-[(2-chloro-6-fluorophenyl)methyl]-4-[(4-fluoro-2-methylphenyl)methyl]-4,5-dihydro-1,2,4-oxadiazol-5-one]
IC50 (P2X7 receptor [1]): 115 nM | IC50 (P2X7 receptor [2]): < 200 nM | IC50 (P2X7 receptor [3]): 51.1 nM

O=c1onc(Cc2c(F)cccc2Cl)n1Cc1cccc(F)c1 [Example 26, 3-[(2-chloro-6-fluorophenyl)methyl]-4-[(3-fluorophenyl)methyl]-4,5-dihydro-1,2,4-oxadiazol-5-one]
IC50 (P2X7 receptor [1]): 329 nM | IC50 (P2X7 receptor [2]): 200 to 1000 nM | IC50 (P2X7 receptor [3]): 182 nM

CC(c1ccc(F)cc1)n1c(Cc2c(F)cccc2Cl)noc1=O (stereo not drawn) [Example 48, 3-[(2-chloro-6-fluorophenyl)methyl]-4-[1-(4-fluorophenyl)ethyl]-4,5-dihydro-1,2,4-oxadiazol-5-one]
IC50 (P2X7 receptor [1]): 340 nM | IC50 (P2X7 receptor [2]): 200 to 1000 nM | IC50 (P2X7 receptor [3]): 386 nM

O=c1onc(Cc2c(F)cccc2Cl)n1Cc1ccc(F)cc1 [Example 55, 3-[(2-chloro-6-fluorophenyl)methyl]-4-[(4-fluorophenyl)methyl]-4,5-dihydro-1,2,4-oxadiazol-5-one]
IC50 (P2X7 receptor [1]): 50 nM | IC50 (P2X7 receptor [2]): 200 to 1000 nM | IC50 (P2X7 receptor [3]): 33.8 nM

O=c1onc(Cc2c(F)cccc2Cl)n1Cc1ccc(F)cc1Cl [Example 60, 4-[(2-chloro-4-fluorophenyl)methyl]-3-[(2-chloro-6-fluorophenyl)methyl]-4,5-dihydro-1,2,4-oxadiazol-5-one]
IC50 (P2X7 receptor [1]): 366 nM | IC50 (P2X7 receptor [2]): 200 to 1000 nM | IC50 (P2X7 receptor [3]): 623 nM

O=c1onc(Cc2c(F)cccc2Cl)n1Cc1ccc(F)cc1F [Example 61, 3-[(2-chloro-6-fluorophenyl)methyl]-4-[(2,4-difluorophenyl)methyl]-4,5-dihydro-1,2,4-oxadiazol-5-one]
IC50 (P2X7 receptor [1]): 293 nM | IC50 (P2X7 receptor [2]): 200 to 1000 nM | IC50 (P2X7 receptor [3]): 149 nM

O=c1onc(Cc2c(F)cccc2Cl)n1Cc1ccc(Cl)cc1 [Example 65, 3-[(2-chloro-6-fluorophenyl)methyl]-4-[(4-chlorophenyl)methyl]-4,5-dihydro-1,2,4-oxadiazol-5-one]
IC50 (P2X7 receptor [1]): 318 nM | IC50 (P2X7 receptor [2]): 200 to 1000 nM | IC50 (P2X7 receptor [3]): 348 nM

O=c1onc(Cc2c(F)cccc2Cl)n1Cc1ccc(C(F)(F)F)o1 [Example 66, 3-[(2-chloro-6-fluorophenyl)methyl]-4-{[5-(trifluoromethyl)furan-2-yl]methyl}-4,5-dihydro-1,2,4-oxadiazol-5-one]
IC50 (P2X7 receptor [1]): 456 nM | IC50 (P2X7 receptor [2]): 200 to 1000 nM | IC50 (P2X7 receptor [3]): 1500 nM

O=c1onc(Cc2cccc(Cl)c2Cl)n1Cc1ccc(F)cc1 [Example 71, 3-[(2,3-dichlorophenyl)methyl]-4-[(4-fluorophenyl)methyl]-4,5-dihydro-1,2,4-oxadiazol-5-one]
IC50 (P2X7 receptor [1]): 461 nM | IC50 (P2X7 receptor [2]): 200 to 1000 nM | IC50 (P2X7 receptor [3]): 1160 nM

O=c1onc(Cc2ccc(F)cc2Cl)n1Cc1ccc(F)cc1 [Example 73, 3-[(2-chloro-4-fluorophenyl)methyl]-4-[(4-fluorophenyl)methyl]-4,5-dihydro-1,2,4-oxadiazol-5-one]
IC50 (P2X7 receptor [1]): 670 nM | IC50 (P2X7 receptor [2]): 200 to 1000 nM | IC50 (P2X7 receptor [3]): 423 nM

O=c1onc(Cc2ccccc2Cl)n1Cc1ccc(F)cc1 [Example 76, 3-[(2-chlorophenyl)methyl]-4-[(4-fluorophenyl)methyl]-4,5-dihydro-1,2,4-oxadiazol-5-one]
IC50 (P2X7 receptor [1]): 168 nM | IC50 (P2X7 receptor [2]): 200 to 1000 nM | IC50 (P2X7 receptor [3]): 401 nM

O=c1onc(Cc2cccc(F)c2)n1Cc1c(F)cccc1Cl [Example 81, 4-[(2-chloro-6-fluorophenyl)methyl]-3-[(3-fluorophenyl)methyl]-4,5-dihydro-1,2,4-oxadiazol-5-one]
IC50 (P2X7 receptor [1]): 619 nM | IC50 (P2X7 receptor [2]): 200 to 1000 nM | IC50 (P2X7 receptor [3]): 292 nM

O=c1onc(Cc2c(F)cccc2Cl)n1CC1CCCCC1 [Example 82, 3-[(2-chloro-6-fluorophenyl)methyl]-4-(cyclohexylmethyl)-4,5-dihydro-1,2,4-oxadiazol-5-one]
IC50 (P2X7 receptor [1]): 30 nM | IC50 (P2X7 receptor [2]): < 200 nM | IC50 (P2X7 receptor [3]): 21.4 nM

O=c1onc(Cc2c(F)cccc2Cl)n1CC1CCC(F)(F)CC1 [Example 84, 3-[(2-chloro-6-fluorophenyl)methyl]-4-[(4,4-difluorocyclohexyl)methyl]-4,5-dihydro-1,2,4-oxadiazol-5-one]
IC50 (P2X7 receptor [1]): 3.4 nM | IC50 (P2X7 receptor [2]): < 200 nM | IC50 (P2X7 receptor [3]): 8.43 nM

O=c1onc(Cc2c(F)cccc2Cl)n1CC1CCCC1 [Example 85, 3-[(2-chloro-6-fluorophenyl)methyl]-4-(cyclopentylmethyl)-4,5-dihydro-1,2,4-oxadiazol-5-one]
IC50 (P2X7 receptor [1]): 131 nM | IC50 (P2X7 receptor [2]): < 200 nM | IC50 (P2X7 receptor [3]): 167 nM

CC1(C)CCC(Cn2c(Cc3c(F)cccc3Cl)noc2=O)CC1 [Example 86, 3-[(2-chloro-6-fluorophenyl)methyl]-4-[(4,4-dimethylcyclohexyl)methyl]-4,5-dihydro-1,2,4-oxadiazol-5-one]
IC50 (P2X7 receptor [1]): 111 nM | IC50 (P2X7 receptor [2]): 200 to 1000 nM | IC50 (P2X7 receptor [3]): 154 nM
